Data published in patent publication US5571799A, “(2'-5') oligoadenylate analogues useful as inhibitors of host-v5.-graft response” (Basco, Ltd., priority 1994, dated 1996).
Entries after “also recorded” stand apart in the source; their conditions may differ.

Key:
transplanted kidney = assay: Kidney cross-allotransplantation in monkeys: graft function; assay type: in vivo, Macaque Rh. monkeys
Method: (§1) The experiments were performed on 4 year-old Macaque Rh. monkeys. Each cohort consisted of 3 animals. […] The results of the experiments were evaluated clinically: by the presence or absence of urination from the ureterocutaneostoma.
(§2) After intravenous anesthesia with Ketalar®, an extraperitoneal access to the left kidney was performed through layer by layer cuts to the left lumbar region. The kidney was excised from the surrounding tissues. A clamp was applied to the vessel limb; the artery, the vein and the ureter each were prepared for anastomosis separately. The kidney was excised and transferred for hypothermal conservation in Collins' solution.
(§3) The donor kidney was transplanted into the recipient. […] anastomosis was performed: the graft arteries and veins attached to the appropriate recipient kidney vessels through plastic tubes. The kidney having been resuscitated by in blood flow, acquired the normal color and turgor. Additional hemostasis in the wound was performed. Ureterocutaneostomy was performed, which was followed by applying layer-upon-layer sutures on the wound and its aseptic dressing.
(§4) The monkeys were narcotized by means of the intravenous anesthesia with Ketalar® and subjected to medial laparotomy from the xiphoid down to the pubic joint. Access to the left Kidney was made extraperitoneally. The kidney was teased from the surrounding tissues. A clamp was put on the vessel limb; the artery, the vein and the ureter were dressed separately; the kidney was cut and transferred for hypothermal conservation in Collins' solution.
The internal iliac artery and the external iliac vein were extracted extra-peritoneally, immobilized and prepared for anastomosis. The donor kidney was transferred to the recipient. Vessel anastomosis was performed: the graft arteries were anastomosed with the internal iliac artery according to the end-to-end method and the graft veins were anastomosed with the external iliac vein according to the end-to-side method. The kidney having been engaged in blood flow, acquired a normal color and turgor. […]

T-killers and T-helpers = assay: Immunosuppressive activity in vivo in monkeys; parameters: species or system Macaque Rh. monkeys
Method: (§5) The experiments were performed on 4 year-old Macaque Rh. monkeys. The levels of the principal subpopulations of T-lymphocytes, IgA, IgG, IgM and the amount of α- and γ-interferon and interleukin II after administration (2'-5')olygoadenylate and its analogies at the concentration of 50 and 25 μg/kg of the body weight was investigated.
(§6) FLOW CYTOFLUOROGRAFIC ANALYSIS OF LYMPHOCYTE SUBSETS
(§7) Blood samples (100 μl of whole blood) were placed into a 12×17 tube. To these cells 20 μl of purified monoclonal antibodies were added with specificity for human cytotoxic/suppressor cells anti-Leu-2a (CD8), human helper/inducer anti-Leu-3a (CD4) and FITC conjugated monoclonal antibodies with specificity for natural killer cells-anti-Leu11c (CD16) (Becton Dickinson, San Jose). After 30 minutes incubation on ice, the cells were washed once and 20 μl of goat-antimouse chain phycoerythrin (Sigma P1286) conjugate were added to the tube with anti-Leu-2a and anti-Leu-3a monoclonal antibodies.
(§8) After erythrocyte lysing with FACS lysing solution (Becton Dickinson, San Jose) the cells were analyzed on FACScan flow cytometer (Becton Dickinson, San Jose) with scatter gate set on lymphocyte fraction.

T-helpers [1] = assay: T-helpers in monkeys after kidney transplantation; assay type: in vivo, Macaque Rh. monkeys; settings: for T-helpers: 50 μg/kg IV, 2 days pre-op. 30
Method: as §6, §7, §8, §1, §2, §3, §4
The internal iliac artery and the external iliac vein were extracted extra-peritoneally, immobilized and prepared for anastomosis. The donor kidney was transferred to the recipient. Vessel anastomosis was performed: the graft arteries were anastomosed with the internal iliac artery according to the end-to-end method and the graft veins were anastomosed with the external iliac vein according to the end-to-side method. The kidney having been engaged in blood flow, acquired a normal color and turgor. Bleeding on the line of the arterial anastomosis was stopped by making additional sutures. Ureterocutaneostomy was performed. The abdominal cavity was lavaged with the solution of disodium carbenicillin. Layer-upon-layer sutures on the wound were applied. Aseptic dressing was performed.
(§9) During our experiments we have divided monkeys into two groups, three monkeys to each group. For the first group (2'-5')A2 Ar-epoxy was administered intravenously at concentration of 50 μg/kg two days before the operation and at the second, sixth, and twelfth day after the operation and then every sixth day. […] After transplantation kidney functions were restored within 10 hours.
(§10) The administration schedule of (2'-5')A2 Ar-epoxy was modified slightly for the second group of monkeys. The preparation was injected two days before the operation and every other day at a concentration of 50 μg/kg during the entire post-transplantation period. […] The number of T-helpers dropped correspondingly from 37% to 7%. […] During the entire postoperative period, this activity tendency continues.

[2] = system: T-helper and T-killer cells; assay: T-helper and T-killer cells in monkeys after kidney transplantation; assay type: in vivo, Macaque Rh. monkeys; settings: 50 μg/kg IV every 48 hours; first two post-surgical weeks
Method: as §1, §9, §10

T-helpers [3] = assay: Immune system of monkeys: T-helpers, flow cytofluorografic analysis; assay type: in vivo, Macaque Rh. monkeys
Method: as §5, §6, §7, §8

IgG, IgA, IgM = assay: Immune system of monkeys: serum immunoglobulins by radial immunodiffusion; assay type: in vivo, Macaque Rh. monkeys
Method: as §5, with “Immunosuppressive activity of the prototype 2'-5'A3 and two analogues (2'-5')A2 Ar-epoxy and (2'-5')A2 A^l-epoxy were investigated in monkeys. The experiments” for “The experiments”
IMMUNOGLOBULIN DETERMINATION
Serum levels of IgG, IgA, IgM were determined by radial immunodiffusion using antisera against human immunoglobulin A, M, G. The amount of interferon and interleukine-II were determined by the method of Lopez-Botet M. et al., 1982.

[4] = single IV 25 μg/kg, day 0 (baseline)
[5] = single IV 50 μg/kg, day 0 (baseline)

In the case of “Adenylyl (2'-5')adenylyl (2'-5')-9-(2,3-anhydro-β-D-ribofuranosyl) adenine disodium salt [(2'-5')A2 Ar-epoxy]”, the “prevention of transplant rejection / kidney function, in words” value (transplanted kidney; 50 μg/kg IV, disodium salt) is reported as “protects the transplant from rejection, and renews normal functioning of the transplanted kidney; also recorded: transplanted kidney resumes and maintains its normal functions; also recorded: effectively prevent the rejection”, the “time to restoration of kidney function after transplantation” value (transplanted kidney; first group: 50 μg/kg IV 2 days pre-op., days 2, 6, 12, then every sixth day) is reported as at most 10 h and the “time to restoration of kidney function after transplantation” value (transplanted kidney; second group: 50 μg/kg 2 days pre-op. and every other day) is reported as at most 10 h. For the same substance, the “immunosuppressive activity, in words” value (T-killers and T-helpers; monkeys, IV, disodium salt) was “suppresses significantly the number of T-lymphocytes in blood after only 48 hours; also recorded: strong immunosuppressive activity specifically against T-killers and T-helpers; also recorded: suppressed more actively the number of T-killer and T-helpers”, the “increase of the quantity of the subpopulation of T-helpers and T-killers” value (T-killers and T-helpers; single IV injection (Table 10 experiment, 500 μg/kg)) was “about 50%” and the “suppression of the number of T-killers and T-helpers” value (T-killers and T-helpers; single IV injection, 48 hours, monkeys) was 50%. For the same substance, the T-helpers (T-helpers [1]; day 1 post-op.) was 8%, the T-helpers (T-helpers [1]; day 5 post-op.) was 39.9% and the T-helpers (T-helpers [1]; day 8 post-op.) was 32%. The T-helpers (T-helpers [1]; day 13 post-op.) was 34.7%, the T-helpers (T-helpers [1]; day 18 post-op.) was 14.5% and the “number of T-helpers” value (T-helpers [1]; second group, 50 μg/kg every other day, 7 days after surgery, from 37%) was 7%. The “retained level of T-helper and T-killer cells relative to normal value” [2] was 30%, the T-helpers (T-helpers [3]; [4]) was 16% and the T-helpers (T-helpers [3]; single IV 25 μg/kg, day 1) was 20%. It also gave a T-helpers (T-helpers [3]; single IV 25 μg/kg, day 2) of 10%, a T-helpers (T-helpers [3]; single IV 25 μg/kg, day 4) of 4% and a T-helpers (T-helpers [3]; single IV 25 μg/kg, day 8) of 5.3%. For the same substance, the T-helpers (T-helpers [3]; single IV 25 μg/kg, day 12) was 7%, the T-helpers (T-helpers [3]; single IV 25 μg/kg, day 21) was 23% and the T-helpers (T-helpers [3]; [5]) was 30%. For the same substance, the T-helpers (T-helpers [3]; single IV 50 μg/kg, day 1) was 29%, the T-helpers (T-helpers [3]; single IV 50 μg/kg, day 2) was 15% and the T-helpers (T-helpers [3]; single IV 50 μg/kg, day 4) was 1.2%. It also gave a T-helpers (T-helpers [3]; single IV 50 μg/kg, day 8) of 5.0%, a T-helpers (T-helpers [3]; single IV 50 μg/kg, day 12) of 7.0% and a T-helpers (T-helpers [3]; single IV 50 μg/kg, day 21) of 30.6%. It also gave an IgA (IgG, IgA, IgM; [4]) of 2.8 g/L, an IgG (IgG, IgA, IgM; [4]) of 7.5 g/L and an IgM (IgG, IgA, IgM; [4]) of 0.5 g/L. The IgA (IgG, IgA, IgM; single IV 25 μg/kg, day 1) was 2.0 g/L, the IgG (IgG, IgA, IgM; single IV 25 μg/kg, day 1) was 7.4 g/L and the IgM (IgG, IgA, IgM; single IV 25 μg/kg, day 1) was 0.6 g/L. The IgA (IgG, IgA, IgM; single IV 25 μg/kg, day 2) was 1.1 g/L, the IgG (IgG, IgA, IgM; single IV 25 μg/kg, day 2) was 5.2 g/L and the IgM (IgG, IgA, IgM; single IV 25 μg/kg, day 2) was 1.0 g/L. It also gave an IgA (IgG, IgA, IgM; single IV 25 μg/kg, day 8) of 0.53 g/L, an IgG (IgG, IgA, IgM; single IV 25 μg/kg, day 8) of 14.5 g/L and an IgM (IgG, IgA, IgM; single IV 25 μg/kg, day 8) of 1.41 g/L. The IgA (IgG, IgA, IgM; single IV 25 μg/kg, day 21) was 0.38 g/L, the IgG (IgG, IgA, IgM; single IV 25 μg/kg, day 21) was 14.48 g/L and the IgM (IgG, IgA, IgM; single IV 25 μg/kg, day 21) was 1.2 g/L. It also gave an IgA (IgG, IgA, IgM; [5]) of 2.8 g/L, an IgG (IgG, IgA, IgM; [5]) of 9.6 g/L and an IgM (IgG, IgA, IgM; [5]) of 0.6 g/L. For the same substance, the IgA (IgG, IgA, IgM; single IV 50 μg/kg, day 1) was 2.7 g/L, the IgG (IgG, IgA, IgM; single IV 50 μg/kg, day 1) was 7.8 g/L and the IgM (IgG, IgA, IgM; single IV 50 μg/kg, day 1) was 0.5 g/L. The IgA (IgG, IgA, IgM; single IV 50 μg/kg, day 2) was 0.8 g/L, the IgG (IgG, IgA, IgM; single IV 50 μg/kg, day 2) was 15.0 g/L and the IgM (IgG, IgA, IgM; single IV 50 μg/kg, day 2) was 1.1 g/L. The IgA (IgG, IgA, IgM; single IV 50 μg/kg, day 8) was 0.9 g/L, the IgG (IgG, IgA, IgM; single IV 50 μg/kg, day 8) was 14.8 g/L and the IgM (IgG, IgA, IgM; single IV 50 μg/kg, day 8) was 0.9 g/L. It also gave an IgA (IgG, IgA, IgM; single IV 50 μg/kg, day 21) of 0.38 g/L, an IgG (IgG, IgA, IgM; single IV 50 μg/kg, day 21) of 13.2 g/L and an IgM (IgG, IgA, IgM; single IV 50 μg/kg, day 21) of 0.78 g/L.
